According to US20170000133A1, “BENZOXABOROLE FUNGICIDES” (SYNGENTA PARTICIPATIONS AG, priority 2013, published 2017):

Columns and labels:
[1] = tested on: Thanatephorus cucumeris (Rhizoctonia solani); experiment: Thanatephorus cucumeris (Rhizoctonia solani) / liquid culture (foot rot, damping-off); type: cell-based; settings: PDB potato dextrose broth, 24° C., 3-4 days after application, read-out: disease control (inhibition of growth determined photometrically)
Description: 17. Thanatephorus cucumeris (Rhizoctonia solani)/Liquid Culture (Foot Rot, Damping-Off): Mycelia fragments of a newly grown liquid culture of the fungus were directly mixed into nutrient broth (PDB potato dextrose broth). After placing a DMSO solution of the test compounds into a 96-well microtiter plate at an application rate of 200 ppm, the nutrient broth containing the fungal material was added. The test plates were incubated at 24° C. and the inhibition of growth was determined photometrically 3-4 days after application.

[2] = tested on: Mycosphaerella arachidis (Cercospora arachidicola); experiment: Mycosphaerella arachidis (Cercospora arachidicola) / liquid culture (early leaf spot); type: cell-based; settings: PDB potato dextrose broth, 24° C., 4-5 days after application, read-out: disease control (inhibition of growth determined photometrically)
Description: (§1) 12. Mycosphaerella arachidis (Cercospora arachidicola)/Liquid Culture (Early Leaf Spot): Conidia of the fungus from cryogenic storage were directly mixed into nutrient broth (PDB potato dextrose broth). After placing a DMSO solution of test compound into a 96-well microtiter plate at an application rate of 200 ppm, the nutrient broth containing the fungal spores was added. The test plates were incubated at 24° C. and the inhibition of growth was determined photometrically 4-5 days after application.

[3] = tested on: Mycosphaerella graminicola (Septoria tritici); experiment: Mycosphaerella graminicola (Septoria tritici) / liquid culture (Septoria blotch); type: cell-based; settings: Zymoseptoria tritici, PDB potato dextrose broth, 24° C., 4-5 days after application, read-out: disease control (inhibition of growth determined photometrically)
Description: as §1, with “13.” for “12.”, “graminicola (Septoria tritici)/Liquid” for “arachidis (Cercospora arachidicola)/Liquid”, “(Septoria Blotch):” for “(Early Leaf Spot):”

[4] = tested on: Glomerella lagenarium (Colletotrichum lagenarium); experiment: Glomerella lagenarium (Colletotrichum lagenarium) / liquid culture (anthracnose); type: cell-based; settings: Colletotrichum orbiculare, PDB potato dextrose broth, 24° C., 3-4 days after application, read-out: disease control (inhibition of growth measured photometrically)
Description: as §1, with “11. Glomerella lagenarium (Colletotrichum lagenarium)/Liquid” for “12. Mycosphaerella arachidis (Cercospora arachidicola)/Liquid”, “(Anthracnose):” for “(Early Leaf Spot):”, “measured” for “determined”, “3-4” for “4-5”

Pythium ultimum = Pythium ultimum / liquid culture (seedling damping off); type: cell-based; settings: Globisporangium ultimum; 200 ppm; potato dextrose broth, 24° C., 2-3 days after application; read-out: disease control (inhibition of growth determined photometrically)
[5] = tested on: Monographella nivalis (Microdochium nivale); experiment: Monographella nivalis (Microdochium nivale) / liquid culture (foot rot cereals); type: cell-based; settings: PDB potato dextrose broth, 24° C., 4-5 days after application, read-out: disease control (inhibition of growth determined photometrically)
Plasmopara viticola = experiment: whole plant or invertebrate; type: in vivo; settings: foliar, read-out: disease control
Gaeumannomyces graminis = Gaeumannomyces graminis / liquid culture (take-all of cereals); type: cell-based; settings: PDB potato dextrose broth, 24° C., 4-5 days after application, read-out: disease control (inhibition of growth determined photometrically)
Description: 14. Gaeumannomyces graminis/Liquid Culture (Take-all of Cereals): Mycelial fragments of the fungus from cryogenic storage were directly mixed into nutrient broth (PDB potato dextrose broth). After placing a DMSO solution of test compound into a 96-well microtiter plate at an application rate of 200 ppm, the nutrient broth […], containing the fungal spores is added. The test plates were incubated at 24° C. and the inhibition of growth was determined photometrically 4-5 days after application.

CCCCSCCOC(=O)c1cc2c(cc1Cl)COB2O [Compound 198]
≥ 80%: inhibition at 200 ppm [1] | inhibition at 200 ppm [2] | inhibition at 200 ppm [3] | inhibition at 200 ppm [4] | inhibition at 200 ppm (Pythium ultimum) | inhibition at 200 ppm [5]

Cn1cc(CCCOC(=O)c2ccc3c(c2)B(O)OC3)cn1 [Compound 345]
≥ 80%: inhibition at 200 ppm [1] | inhibition at 200 ppm [2] | inhibition at 200 ppm [4] | inhibition at 200 ppm (Pythium ultimum) | pest or weed control at 200 ppm (Plasmopara viticola) | inhibition at 200 ppm (Gaeumannomyces graminis)

CCCCCCCOC(=O)c1cc2c(cc1Cl)COB2O [Compound 195]
≥ 80%: inhibition at 200 ppm [1] | inhibition at 200 ppm [2] | inhibition at 200 ppm [3] | inhibition at 200 ppm [4] | inhibition at 200 ppm (Gaeumannomyces graminis) | inhibition at 200 ppm [5]

O=C(OCc1ccc(-c2ccccc2)cc1)c1cc2c(cc1F)COB2O [Compound 385]
≥ 80%: inhibition at 200 ppm [1] | inhibition at 200 ppm [2] | inhibition at 200 ppm [3] | inhibition at 200 ppm [4] | inhibition at 200 ppm (Gaeumannomyces graminis) | inhibition at 200 ppm [5]

O=C(OCc1cccc(F)c1)c1cc2c(cc1Cl)COB2O [Compound 241]
≥ 80%: inhibition at 200 ppm [1] | inhibition at 200 ppm [2] | inhibition at 200 ppm [3] | inhibition at 200 ppm [4] | inhibition at 200 ppm (Pythium ultimum) | inhibition at 200 ppm (Gaeumannomyces graminis) | inhibition at 200 ppm [5]

C=CC(=O)OCC(C)OC(=O)c1cc2c(cc1Cl)COB2O (centres unmarked) [Compound 191]
≥ 80%: inhibition at 200 ppm [3] | inhibition at 200 ppm [4] | inhibition at 200 ppm (Gaeumannomyces graminis) | inhibition at 200 ppm [5]

O=C(OCc1ccc(-c2ccccc2)cc1)c1ccc2c(c1)B(O)OC2 [Compound 325]
≥ 80%: inhibition at 200 ppm [2] | inhibition at 200 ppm [3] | inhibition at 200 ppm [4] | inhibition at 200 ppm (Gaeumannomyces graminis) | inhibition at 200 ppm [5]

C#CCCCOC(=O)c1cc2c(cc1F)COB2O [Compound 395]
≥ 80%: inhibition at 200 ppm [1] | inhibition at 200 ppm [2] | inhibition at 200 ppm [4] | inhibition at 200 ppm (Pythium ultimum) | pest or weed control at 200 ppm (Plasmopara viticola) | inhibition at 200 ppm (Gaeumannomyces graminis) | inhibition at 200 ppm [5]

C[Si](C)(C)/C=C/COC(=O)c1cc2c(cc1F)COB2O [Compound 404]
≥ 80%: inhibition at 200 ppm [1] | inhibition at 200 ppm [2] | inhibition at 200 ppm [3] | inhibition at 200 ppm [4] | inhibition at 200 ppm (Pythium ultimum) | inhibition at 200 ppm (Gaeumannomyces graminis) | inhibition at 200 ppm [5]

O=C(OC1CCC1)c1cc2c(cc1F)COB2O [Compound 392]
≥ 80%: inhibition at 200 ppm [1] | inhibition at 200 ppm [2] | inhibition at 200 ppm [3] | inhibition at 200 ppm [4] | inhibition at 200 ppm (Pythium ultimum) | pest or weed control at 200 ppm (Plasmopara viticola) | inhibition at 200 ppm [5]

O=C(OCc1ccc(C(F)(F)F)cc1Cl)c1cc2c(cc1F)COB2O [Compound 386]
≥ 80%: inhibition at 200 ppm [1] | inhibition at 200 ppm [2] | inhibition at 200 ppm [4] | inhibition at 200 ppm (Pythium ultimum) | inhibition at 200 ppm (Gaeumannomyces graminis) | inhibition at 200 ppm [5]

O=C(OCC1CCSCC1)c1cc2c(cc1Cl)COB2O [Compound 196]
≥ 80%: inhibition at 200 ppm [3] | inhibition at 200 ppm [4] | inhibition at 200 ppm (Pythium ultimum) | pest or weed control at 200 ppm (Plasmopara viticola) | inhibition at 200 ppm (Gaeumannomyces graminis) | inhibition at 200 ppm [5]

O=C(OCCOc1ccc(Cl)cc1)c1cc2c(cc1F)COB2O [Compound 414]
≥ 80%: inhibition at 200 ppm [1] | inhibition at 200 ppm [2] | inhibition at 200 ppm [3] | inhibition at 200 ppm [4] | inhibition at 200 ppm (Pythium ultimum) | inhibition at 200 ppm (Gaeumannomyces graminis) | inhibition at 200 ppm [5]

COCCOC(=O)c1cc2c(cc1F)COB2O [Compound 412]
≥ 80%: inhibition at 200 ppm [1] | inhibition at 200 ppm [2] | inhibition at 200 ppm [4] | inhibition at 200 ppm (Pythium ultimum) | pest or weed control at 200 ppm (Plasmopara viticola) | inhibition at 200 ppm [5]

O=C(OCC(F)(F)Cl)c1cc2c(cc1Cl)COB2O [Compound 192]
≥ 80%: inhibition at 200 ppm [1] | inhibition at 200 ppm [3] | inhibition at 200 ppm [4] | inhibition at 200 ppm (Pythium ultimum) | pest or weed control at 200 ppm (Plasmopara viticola) | inhibition at 200 ppm (Gaeumannomyces graminis) | inhibition at 200 ppm [5]

Cn1cc(CCCOC(=O)c2cc3c(cc2F)COB3O)cn1 [Compound 407]
≥ 80%: inhibition at 200 ppm [1] | inhibition at 200 ppm [2] | inhibition at 200 ppm [4] | inhibition at 200 ppm (Pythium ultimum)

O=C(OCCF)c1ccc2c(c1)B(O)OC2 [Compound 360]
≥ 80%: inhibition at 200 ppm [1] | inhibition at 200 ppm [2] | inhibition at 200 ppm [4] | inhibition at 200 ppm (Pythium ultimum) | pest or weed control at 200 ppm (Plasmopara viticola)

CCCCCCCOC(=O)c1cc2c(cc1F)COB2O [Compound 378]
≥ 80%: inhibition at 200 ppm [1] | inhibition at 200 ppm [2] | inhibition at 200 ppm [3] | inhibition at 200 ppm [4] | inhibition at 200 ppm (Pythium ultimum) | inhibition at 200 ppm (Gaeumannomyces graminis) | inhibition at 200 ppm [5]

O=C(OCc1ccc(-c2ccccc2)cc1)c1cc2c(cc1Cl)COB2O [Compound 199]
≥ 80%: inhibition at 200 ppm [3] | inhibition at 200 ppm [4] | inhibition at 200 ppm (Gaeumannomyces graminis) | inhibition at 200 ppm [5]

COc1ccc(OCCOC(=O)c2cc3c(cc2F)COB3O)cc1 [Compound 406]
≥ 80%: inhibition at 200 ppm [1] | inhibition at 200 ppm [2] | inhibition at 200 ppm [3] | inhibition at 200 ppm [4] | inhibition at 200 ppm (Pythium ultimum) | inhibition at 200 ppm (Gaeumannomyces graminis) | inhibition at 200 ppm [5]

COC(=O)C(OC(=O)c1cc2c(cc1F)COB2O)c1ccccc1 (centres unmarked) [Compound 411]
≥ 80%: inhibition at 200 ppm [3] | inhibition at 200 ppm [4] | inhibition at 200 ppm (Pythium ultimum) | pest or weed control at 200 ppm (Plasmopara viticola) | inhibition at 200 ppm (Gaeumannomyces graminis) | inhibition at 200 ppm [5]

CCCCSCCOC(=O)c1cc2c(cc1F)COB2O [Compound 384]
≥ 80%: inhibition at 200 ppm [1] | inhibition at 200 ppm [2] | inhibition at 200 ppm [3] | inhibition at 200 ppm [4] | inhibition at 200 ppm (Pythium ultimum) | inhibition at 200 ppm [5]

COc1ccc(OCCOC(=O)c2cc3c(cc2Cl)COB3O)cc1 [Compound 218]
≥ 80%: inhibition at 200 ppm [1] | inhibition at 200 ppm [2] | inhibition at 200 ppm [3] | inhibition at 200 ppm [4] | inhibition at 200 ppm (Pythium ultimum) | inhibition at 200 ppm (Gaeumannomyces graminis) | inhibition at 200 ppm [5]

CC#CC(C)OC(=O)c1ccc2c(c1)B(O)OC2 (centres unmarked) [Compound 341]
≥ 80%: inhibition at 200 ppm [1] | inhibition at 200 ppm [2] | inhibition at 200 ppm [3] | inhibition at 200 ppm [4] | inhibition at 200 ppm (Pythium ultimum) | pest or weed control at 200 ppm (Plasmopara viticola) | inhibition at 200 ppm (Gaeumannomyces graminis)

O=C(OCCC(F)(F)F)c1cc2c(cc1Cl)COB2O [Compound 238]
≥ 80%: inhibition at 200 ppm [1] | inhibition at 200 ppm [3] | inhibition at 200 ppm [4] | inhibition at 200 ppm (Pythium ultimum) | pest or weed control at 200 ppm (Plasmopara viticola) | inhibition at 200 ppm (Gaeumannomyces graminis) | inhibition at 200 ppm [5]

O=C(OCCCCc1ccc2ccccc2c1)c1cc2c(cc1Cl)COB2O [Compound 227]
≥ 80%: inhibition at 200 ppm [1] | inhibition at 200 ppm [3] | inhibition at 200 ppm [4] | inhibition at 200 ppm [5]

C#CC(CC)OC(=O)c1cc2c(cc1F)COB2O (centres unmarked) [Compound 387]
≥ 80%: inhibition at 200 ppm [1] | inhibition at 200 ppm [3] | inhibition at 200 ppm [4] | inhibition at 200 ppm (Pythium ultimum) | inhibition at 200 ppm (Gaeumannomyces graminis) | inhibition at 200 ppm [5]

C=C(C)COC(=O)c1cc2c(cc1Cl)COB2O [Compound 214]
≥ 80%: inhibition at 200 ppm [1] | inhibition at 200 ppm [2] | inhibition at 200 ppm [3] | inhibition at 200 ppm [4] | inhibition at 200 ppm (Pythium ultimum) | inhibition at 200 ppm (Gaeumannomyces graminis) | inhibition at 200 ppm [5]

O=C(OCCCF)c1cc2c(cc1F)COB2O [Compound 390]
≥ 80%: inhibition at 200 ppm [1] | inhibition at 200 ppm [4] | inhibition at 200 ppm (Pythium ultimum) | pest or weed control at 200 ppm (Plasmopara viticola) | inhibition at 200 ppm (Gaeumannomyces graminis) | inhibition at 200 ppm [5]
